From patent US10722512B2, “Combinations of histone deacetylase inhibitors and either HER2 inhibitors or PI3K inhibitors” (Acetylon Pharmaceuticals, Inc., priority 2013, dated 2020)

Experiments:
Format in all cases: cell-based
HCC1937 = experiment: Breast cancer cell viability, 48 hours, MTA assay; conditions: 48 hours; for Synergy: HCC1937, combination with cmpd A, Chou-Talalay CI; for IC50: Homo sapiens, HCC1937, single agent, read-out: IC50
Source text: (§1) Cell viabilities were used to calculate “Fraction Affected” (Fa) and “Combination Index” (CI) values using the Chou-Talalay method. Any combination with a CI value<0.70 at a Fa value between 0.25 and 0.75 was defined as positive synergy.

MDA-MB-231 = experiment: Breast cancer cell viability, 48 hours, MTA assay; conditions: 48 hours; for IC50: Homo sapiens, MDA-MB-231, single agent, read-out: IC50; for Synergy: MDA-MB-231, combination with cmpd A, Chou-Talalay CI
Source text: as §1

ZR-75-1 = experiment: Breast cancer cell viability, 48 hours, MTA assay; conditions: 48 hours; for IC50: Homo sapiens, ZR-75-1, single agent, read-out: IC50; for Synergy: ZR-75-1, combination with cmpd A, Chou-Talalay CI
Source text: as §1

Hs578T = experiment: Breast cancer cell viability, 48 hours, MTA assay; conditions: Hs578T, 48 hours; for IC50: Homo sapiens, Hs-578T, single agent, read-out: IC50; for Synergy: combination with cmpd A, Chou-Talalay CI
Source text: as §1

MDA-MB-436 = experiment: Breast cancer cell viability, 48 hours, MTA assay; conditions: 48 hours; for IC50: Homo sapiens, MDA-MB-436, single agent, read-out: IC50
Source text: as §1

MDA-MB-468 = experiment: Breast cancer cell viability, 48 hours, MTA assay; conditions: 48 hours; for IC50: Homo sapiens, MDA-MB-468, single agent, read-out: IC50; for Synergy: MDA-MB-468, combination with cmpd A, Chou-Talalay CI
Source text: as §1

HCC38 = experiment: Breast cancer cell viability, 48 hours, MTA assay; conditions: 48 hours; for Synergy: HCC38, combination with cmpd A, Chou-Talalay CI; for IC50: Homo sapiens, HCC38, single agent, read-out: IC50
Source text: as §1

Bcap-37 = experiment: Breast cancer cell viability, 48 hours, MTA assay; conditions: 48 hours; for Synergy: Bcap-37, combination with cmpd A, Chou-Talalay CI; for IC50: Homo sapiens, Bcap37, Bcap-37, single agent, read-out: IC50
Source text: as §1

MDA-MB-361 = experiment: Breast cancer cell viability, 48 hours, MTA assay; conditions: 48 hours; for IC50: Homo sapiens, MDA-MB-361, single agent, read-out: IC50
Source text: as §1

MDA-MB-453 = experiment: Breast cancer cell viability, 48 hours, MTA assay; conditions: 48 hours; for IC50: Homo sapiens, MDA-MB-453, single agent, read-out: IC50
Source text: as §1

T-47D* = experiment: Breast cancer cell viability, 48 hours, MTA assay; conditions: T-47D*, 48 hours; for IC50: Homo sapiens, T47D, single agent, read-out: IC50; for Synergy: combination with cmpd A, Chou-Talalay CI
Source text: as §1

BT474 = experiment: Breast cancer cell viability, 48 hours, MTA assay; conditions: 48 hours; for Synergy: BT474, combination with cmpd A, Chou-Talalay CI; for IC50: Homo sapiens, BT-474, BT474, single agent, read-out: IC50
Source text: as §1

BT-549 = experiment: Breast cancer cell viability, 48 hours, MTA assay; conditions: 48 hours; for Synergy: BT-549, combination with cmpd A, Chou-Talalay CI; for IC50: Homo sapiens, BT-549, single agent, read-out: IC50
Source text: as §1

SK-BR-3 = experiment: Breast cancer cell viability, 48 hours, MTA assay; conditions: 48 hours; for IC50: Homo sapiens, SK-BR-3, single agent, read-out: IC50; for Synergy: SK-BR-3, combination with cmpd A, Chou-Talalay CI
Source text: as §1

MCF-7 = experiment: Breast cancer cell viability, 48 hours, MTA assay; conditions: 48 hours; for IC50: Homo sapiens, MCF7, MCF-7, single agent, read-out: IC50
Source text: as §1

MX-1 = experiment: Breast cancer cell viability, 48 hours, MTA assay; conditions: 48 hours; for IC50: Homo sapiens, MX1, MX-1, single agent, read-out: IC50; for Synergy: MX-1, combination with cmpd A, Chou-Talalay CI
Source text: as §1

[1] = test system: Her2+ breast cancer cells

| Compound | Synergy (HCC1937) | IC50 (HCC1937) | IC50 (MDA-MB-231) | Synergy (MDA-MB-231) | IC50 (ZR-75-1) | Synergy (ZR-75-1) | IC50 (Hs578T) | Synergy (Hs578T) | IC50 (MDA-MB-436) | IC50 (MDA-MB-468) | Synergy (MDA-MB-468) | Synergy (HCC38) | IC50 (HCC38) | Synergy (Bcap-37) | IC50 (Bcap-37) | IC50 (MDA-MB-361) | IC50 (MDA-MB-453) | IC50 (T-47D*) | Synergy (T-47D*) | Synergy (BT474) | other results |
| --- | --- | --- | --- | --- | --- | --- | --- | --- | --- | --- | --- | --- | --- | --- | --- | --- | --- | --- | --- | --- | --- |
| COc1cccc2c1C(=O)c1c(O)c3c(c(O)c1C2=O)C[C@@](O)(C(=O)CO)C[C@@H]3O[C@H]1C[C@H](N)[C@H](O)[C@H](C)O1 [Doxorubicin] | S (Any combination with a CI value<0.70 at a Fa value between 0.25 and 0.75 was defined as positive synergy) | 240 nM | 730 nM | S (Any combination with a CI value<0.70 at a Fa value between 0.25 and 0.75 was defined as positive synergy) | 130 nM | S (Any combination with a CI value<0.70 at a Fa value between 0.25 and 0.75 was defined as positive synergy) | 1560 nM | S (Any combination with a CI value<0.70 at a Fa value between 0.25 and 0.75 was defined as positive synergy) | 170 nM | 100 nM | S (Any combination with a CI value<0.70 at a Fa value between 0.25 and 0.75 was defined as positive synergy) | S (Any combination with a CI value<0.70 at a Fa value between 0.25 and 0.75 was defined as positive synergy) | 180 nM | S (Any combination with a CI value<0.70 at a Fa value between 0.25 and 0.75 was defined as positive synergy) | 170 nM | 170 nM | 220 nM | 150 nM | S (Any combination with a CI value<0.70 at a Fa value between 0.25 and 0.75 was defined as positive synergy) | S (Any combination with a CI value<0.70 at a Fa value between 0.25 and 0.75 was defined as positive synergy) | IC50 (BT474): 190 nM; Synergy (BT-549): S (Any combination with a CI value<0.70 at a Fa value between 0.25 and 0.75 was defined as positive synergy); IC50 (BT-549): 30 nM; IC50 (SK-BR-3): 120 nM; Synergy (SK-BR-3): S (Any combination with a CI value<0.70 at a Fa value between 0.25 and 0.75 was defined as positive synergy); IC50 (MCF-7): 820 nM; IC50 (MX-1): 240 nM; Synergy (MX-1): S (Any combination with a CI value<0.70 at a Fa value between 0.25 and 0.75 was defined as positive synergy) |
| CS(=O)(=O)N1CCN(Cc2cc3nc(-c4cccc5[nH]ncc45)nc(N4CCOCC4)c3s2)CC1 [GDC-0941] | S (Any combination with a CI value<0.70 at a Fa value between 0.25 and 0.75 was defined as positive synergy) | 2450 nM | 1690 nM | S (Any combination with a CI value<0.70 at a Fa value between 0.25 and 0.75 was defined as positive synergy) | 210 nM | S (Any combination with a CI value<0.70 at a Fa value between 0.25 and 0.75 was defined as positive synergy) | 1110 nM | S (Any combination with a CI value<0.70 at a Fa value between 0.25 and 0.75 was defined as positive synergy) | 3270 nM | 2930 nM | S (Any combination with a CI value<0.70 at a Fa value between 0.25 and 0.75 was defined as positive synergy) | S (Any combination with a CI value<0.70 at a Fa value between 0.25 and 0.75 was defined as positive synergy) | 7440 nM | S (Any combination with a CI value<0.70 at a Fa value between 0.25 and 0.75 was defined as positive synergy) | 2480 nM | 3270 nM | 290 nM | 620 nM | S (Any combination with a CI value<0.70 at a Fa value between 0.25 and 0.75 was defined as positive synergy) | S (Any combination with a CI value<0.70 at a Fa value between 0.25 and 0.75 was defined as positive synergy) | Synergy (MDA-MB-436; MDA-MB-436, combination with cmpd A, Chou-Talalay CI): S (Any combination with a CI value<0.70 at a Fa value between 0.25 and 0.75 was defined as positive synergy); Synergy (MDA-MB-361; MDA-MB-361, combination with cmpd A, Chou-Talalay CI): S (Any combination with a CI value<0.70 at a Fa value between 0.25 and 0.75 was defined as positive synergy); Synergy (MDA-MB-453; MDA-MB-453, combination with cmpd A, Chou-Talalay CI): S (Any combination with a CI value<0.70 at a Fa value between 0.25 and 0.75 was defined as positive synergy); IC50 (BT474): 90 nM; Synergy (BT-549): S (Any combination with a CI value<0.70 at a Fa value between 0.25 and 0.75 was defined as positive synergy); IC50 (BT-549): 1660 nM; IC50 (SK-BR-3): 220 nM; Synergy (SK-BR-3): S (Any combination with a CI value<0.70 at a Fa value between 0.25 and 0.75 was defined as positive synergy); IC50 (MCF-7): 430 nM; Synergy (MCF-7; MCF-7, combination with cmpd A, Chou-Talalay CI): S (Any combination with a CI value<0.70 at a Fa value between 0.25 and 0.75 was defined as positive synergy); IC50 (MX-1): 560 nM; Synergy (MX-1): S (Any combination with a CI value<0.70 at a Fa value between 0.25 and 0.75 was defined as positive synergy); cytotoxicity of the combination with Compound A [1]: synergistic cytotoxicity |
